From paper PMC10477861, “Efficient Mining of Anticancer Peptides from Gut Metagenome” (Advanced Science, 2023) come the findings set out here.

Holding throughout (conditions): 25 µM pACP, 24 h, maintenance medium 1% FBS, ratio of viability to vehicle (PBS), at least three technical repetitions
One assay deals with T47D. Nature of the assay: MTT primary screening of anticancer activity, T47D. It counts as cell-based. The essentials: (§1)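 Single-dose screen: 25 µM peptide (final), 24 h, 1% FBS maintenance medium, cells ~60% confluent; MTT viability read-out.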
The subject of another assay is SK-BR-3. The assay can be described thus: MTT primary screening of anticancer activity, SK-BR-3. It counts as cell-based. Put shortly: as §1
A further assay concerns CT26. Nature of the assay: MTT primary screening of anticancer activity, CT26. Format: cell-based, Murine. The essentials:
as §1

The subject of a further assay is MDA-MB-468. Nature of the assay: MTT primary screening of anticancer activity, MDA-MB-468. Format: cell-based. The essentials:
as §1

In the next assay the test system is EFM192A. Nature of the assay: MTT primary screening of anticancer activity, EFM192A. It counts as cell-based. Put shortly: as §1
Another assay has as its system HCT116. Nature of the assay: MTT primary screening of anticancer activity, HCT116. It counts as cell-based, Human. The essentials:
as §1

In the next assay the test system is BT474. The assay can be described thus: MTT primary screening of anticancer activity, BT474. It counts as cell-based. Put shortly: as §1
In a further assay the test system is MDA-MB-231. Nature of the assay: MTT primary screening of anticancer activity, MDA-MB-231. Format: cell-based. The essentials: as §1
For a further assay, the system named is MDA-MB-436. Nature of the assay: MTT primary screening of anticancer activity, MDA-MB-436. Format: cell-based. The essentials: as §1
For a further assay, the system named is LCC. Nature of the assay: MTT primary screening of anticancer activity, LCC. Format: cell-based. Put shortly: as §1
In another assay the test system is MCF7. The assay can be described thus: MTT primary screening of anticancer activity, MCF7. Format: cell-based. The essentials: as §1
A further assay relates to B16. Nature of the assay: MTT primary screening of anticancer activity, B16. Format: cell-based, Mouse. Put shortly: as §1
The test system of the next assay is HT29. The assay can be described thus: MTT primary screening of anticancer activity, HT29. Format: cell-based, Human. The essentials: as §1
For a further assay, the system named is Caco2. The assay can be described thus: MTT primary screening of anticancer activity, Caco2. It counts as cell-based, Human. Put shortly: as §1
Another assay relates to Hela. Nature of the assay: MTT primary screening of anticancer activity, Hela. It counts as cell-based, Human. Put shortly: as §1
A further assay deals with MDA-MB-453. Nature of the assay: MTT primary screening of anticancer activity, MDA-MB-453. Format: cell-based. The essentials: as §1

Turning to “RPITNVGGFLEVNGKGVKPLHGNKFKCTVSGSFLASGWFTLELERVL [pACP1757]”, the “Survival rate of cancer cells in primary screening” value (from here on “Survival rate of cancer cells”) with T47D is listed as 0.76; in the assay with SK-BR-3, 1.00; with CT26, 1.00; with MDA-MB-468, 1.00; in the assay on EFM192A, 1.00; in the assay with HCT116 it was 1.00. Further, the “Survival rate of cancer cells” value turned out to be 1.00 in the assay with BT474; 1.00 in the assay on MDA-MB-231; 1.00 in the assay on MDA-MB-436; 1.00 in the assay on LCC; 1.00 in the assay on MCF7; 0.79 in the assay on B16. Further, the “Survival rate of cancer cells” value in the assay on HT29, in the assay with Caco2, in the assay on Hela and in the assay with MDA-MB-453 was 1.00 throughout.
Consider “RVYKFVDMIGEIGHGRENHIGSGFDERLCRNGACVDCYGKYLCCRTGDYP [pACP1836]”, for which the “Survival rate of cancer cells” value in the assay on T47D came to 1.00; in the assay on SK-BR-3, 1.00; in the assay on CT26 it was 1.00; in the assay on MDA-MB-468, 0.70; in the assay on EFM192A it was 1.00; in the assay on HCT116, 0.79. Besides, the “Survival rate of cancer cells” value in the assay with BT474, with MDA-MB-231, in the assay on MDA-MB-436, in the assay on LCC, with MCF7 and with B16 was 1.00 throughout. Further, the “Survival rate of cancer cells” value is 0.77 in the assay on HT29, 1.00 with Caco2, 1.00 in the assay with Hela and 1.00 with MDA-MB-453.
Regarding “SCRNGKGISSGDRPGKAKTGISLEIGKCSYRNKGKSAENSSVAVV [pACP1869]”, the “Survival rate of cancer cells” value with T47D was 0.68; in the assay on SK-BR-3, 1.00; in the assay with CT26, 1.00; in the assay on MDA-MB-468, 1.00; with EFM192A, 1.00; with HCT116 it was 1.00. The “Survival rate of cancer cells” value was determined as 1.00 with BT474; 1.00 with MDA-MB-231; 1.00 in the assay with MDA-MB-436; 1.00 in the assay with LCC; 1.00 in the assay with MCF7; 0.79 with B16. Also, the “Survival rate of cancer cells” value in the assay with HT29, in the assay on Caco2, with Hela and in the assay on MDA-MB-453 was 1.00 throughout.
Take “SPLKGGGLLPPAGFCPRRVLCRLPTGWKKGKPSGQMPLFRIWRKVMVMK [pACP1985]”: the “Survival rate of cancer cells” value with T47D is given as 0.15; with SK-BR-3 it was 0.24; in the assay with CT26 it was 0.77; in the assay with MDA-MB-468, 0.31; with EFM192A it was 0.07; with HCT116, 1.00. The “Survival rate of cancer cells” value is 0.05 in the assay with BT474; 0.10 with MDA-MB-231; 0.0378 with MDA-MB-436; 1.00 in the assay with LCC; 0.19 in the assay with MCF7; 0.79 with B16. Also, the “Survival rate of cancer cells” value was found to be 1.00 with HT29, 1.00 with Caco2, 0.0132 in the assay with Hela and 0.08 in the assay with MDA-MB-453.
For “SVGKRCKMGKNYKTVPALKGIPLAGGTYNTRNRSGSG [pACP2037]”, the “Survival rate of cancer cells” value in the assay on T47D amounted to 0.74; in the assay on SK-BR-3, 1.00; in the assay on CT26, 1.00; with MDA-MB-468, 1.00; in the assay on EFM192A, 1.00; with HCT116, 1.00. In addition, the “Survival rate of cancer cells” value in the assay on BT474 was found to be 1.00; in the assay on MDA-MB-231, 1.00; in the assay on MDA-MB-436, 1.00; in the assay on LCC, 1.00; with MCF7 it was 1.00; in the assay on B16 it was 0.78. The “Survival rate of cancer cells” value with HT29, in the assay with Caco2, in the assay with Hela and in the assay with MDA-MB-453 was 1.00 each time.
For the sequence “VAHGLDLLDGVVAEGVAAKGDDNTIGLAKRLRHCWNPFCKRPTTH [pACP2160]”, the “Survival rate of cancer cells” value with T47D was 0.79; with SK-BR-3 it was 1.00; in the assay on CT26 it was 1.00; with MDA-MB-468, 0.70; in the assay on EFM192A it was 1.00; in the assay on HCT116 it was 1.00. In addition, the “Survival rate of cancer cells” value in the assay on BT474 was 1.00; in the assay on MDA-MB-231, 1.00; in the assay on MDA-MB-436, 1.00; in the assay with LCC, 1.00; in the assay with MCF7, 1.00; in the assay with B16, 0.80. Further, the “Survival rate of cancer cells” value in the assay with HT29, with Caco2, in the assay on Hela and with MDA-MB-453 was 1.00 throughout.
With “YCIFFLDKGFPGILADFLCLAGKRTIKLKALKQLIRQQVY [pACP2286]”, the “Survival rate of cancer cells” value in the assay on T47D is on record as 0.63; in the assay on SK-BR-3, 1.00; in the assay with CT26, 1.00; with MDA-MB-468 it was 1.00; in the assay on EFM192A, 1.00; in the assay with HCT116 it was 1.00. Also, the “Survival rate of cancer cells” value was 0.72 with BT474; 1.00 in the assay with MDA-MB-231; 1.00 in the assay on MDA-MB-436; 1.00 with LCC; 0.76 in the assay on MCF7; 0.77 in the assay on B16. For the same sequence, the “Survival rate of cancer cells” value with HT29, in the assay on Caco2, in the assay on Hela and in the assay with MDA-MB-453 was 1.00 each time.
In the case of “YRKCDTAGGLSKLCVAEKDIKIIWKYGGR [pACP2334]”, the “Survival rate of cancer cells” value with T47D is 0.78; with SK-BR-3 it was 1.00; in the assay with CT26, 1.00; in the assay on MDA-MB-468 it was 1.00; with EFM192A, 1.00; in the assay on HCT116, 1.00. The “Survival rate of cancer cells” value is recorded as 1.00 in the assay with BT474; 1.00 with MDA-MB-231; 1.00 with MDA-MB-436; 1.00 in the assay with LCC; 1.00 in the assay on MCF7; 0.76 in the assay on B16. For the same sequence, the “Survival rate of cancer cells” value in the assay on HT29, in the assay with Caco2, with Hela and with MDA-MB-453 was 1.00 in each case.
